Assay results reported in patent US11046716B2, “Beta-lactamase inhibitors” (priority 2015, dated 2021).

How the values were obtained:
[1] = test system: E. coli expressing the Class A Extended Spectrum Beta-Lactamase (ESBL) CTX-M-15; assay: Broth microdilution MIC assay with ceftazidime, E. coli CTX-M-15; type: cell-based; conditions: Fixed CAZ (ceftazidime) 4 μg/mL; E. coli ESBL4 CTX-M-15
Source text: (§1) To determine the ability of test compounds to potentiate the inhibition of the growth of bacterial strains that produce beta-lactamase enzymes in the presence of a β-lactam antibiotic, classic cell based broth microdilution MIC assays were employed. Six bacteria strains producing beta-lactamase enzymes were used: E. coli expressing the Class A Extended Spectrum Beta-Lactamase (ESBL) CTX-M-15, E. cloacae expressing the Class C P99, K. pneumoniae expressing the Class A carbapenemase KPC-2, P. aeruginosa expressing the Class B carbapenemase VIM-2, K. pneumoniae expressing the class A carbapenemase KPC-2 and the class B carbapenemase VIM-4, and K. pneumoniae producing the Class D carbapenemase OXA-48. The assay was conducted in Cation Adjusted Mueller Hinton Broth (CAMHB, BD #212322, BD Diagnostic Systems, Sparks, Md.). Bacteria strains were grown for 3-5 hours in CAMBH broth. Test compounds (Examples 1-94) were added to a microtiter plate in 2-fold serial dilutions in CAMHB in a final concentration range of 16 μg/mL to 0.125 μg/ml. An overlay of CAMHB containing a Beta-lactam was added to the compounds at a final static concentration of 4 μg/ml. […] In addition to the titration of test compounds the MICs of a panel of control beta-lactams is also tested to ensure the strains are behaving consistently from test to test. Once the test compound and antibiotics are added the plates can be inoculated according to CLSI broth microdilution method. After inoculation the plates are incubated for 16-20 hours at 37° C. then the Minimal Inhibitory Concentration (MIC) of the test compound is determined visually.
(§2) Using the methodology described above, examples of the current invention were evaluated for their ability to inhibit the growth of β-lactamase-producing bacteria in the presence of a β-lactam antibiotic.

[2] = test system: K. pneumoniae expressing the class A carbapenemase KPC-2 and the class B carbapenemase VIM-4; assay: Broth microdilution MIC assay with meropenem, K. pneumoniae KPC-2 and VIM-4; type: cell-based; conditions: Fixed Mero (meropenem) 4 μg/mL; K. p. A-1797 KPC-2 VIM-4
Source text: as §1, §2

SHV-5 = biological target: T1, SHV-5 (Klebsiella pneumoniae, UniProt P0A3M1); assay: β-lactamase enzyme inhibition assay, SHV-5 (cefotaxime substrate); type: biochemical
T1 construct: made in house; host or cells: E. coli BL21(DE3)
T1 sequence (P0A3M1 22-286): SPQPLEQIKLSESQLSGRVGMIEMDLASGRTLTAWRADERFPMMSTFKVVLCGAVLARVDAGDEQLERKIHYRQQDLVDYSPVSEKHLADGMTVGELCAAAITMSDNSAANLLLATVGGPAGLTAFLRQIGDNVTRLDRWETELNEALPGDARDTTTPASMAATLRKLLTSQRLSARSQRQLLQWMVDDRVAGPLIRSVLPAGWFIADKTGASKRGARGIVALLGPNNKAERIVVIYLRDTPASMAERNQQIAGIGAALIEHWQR
Protocol: (§3) For SHV-5, Kpc-2, p99AmpC and OXA-1 β-lactamases, E. coli BL21(DE3) bacterial cells carrying expression plasmids (expressed as native untagged proteins) for the individual β-lactamases were grown in 1 L of Superbroth (Teknova Inc. Hollister, Calif.) supplemented with 100 μg/ml kanamycin selection and 1×5052 (0.5% glycerol, 0.05% glucose and 0.2% α-lactose) at 35° C. for 18-20 hours. Cells were harvested by centrifugation (4,000×g, 4° C., 20 min), resuspended in 50 ml of 10 mM HEPES pH 7.5 ( 1/20 of the initial volume). The cells were lysed by sonication (5 pulses of 45 seconds) at 45 W on ice. The lysates were clarified by centrifugation at 10,000×g for 40 minutes at 4° C. Samples were diluted 5-fold in 50 mM sodium acetate pH 5.0, stored overnight at 4° C., after which they were centrifuged at 10,000×g for 30 minutes to clarify, and filtered through 0.45 μm filters. The samples were loaded onto a 5 ml Capto S sepharose cation exchange column (GE Healthcare) pre-equilibrated with 50 mM sodium acetate pH 5.0. The column was washed with 5 column volumes of 50 mM sodium acetate pH 5.0 to wash out unbound protein and a linear gradient of NaCl (0 to 500 mM) was used to elute the protein (over 16 CV) from the column. Fractions were assayed for β-lactamase activity using Centa (Calbiochem, Gibbstown, N.J.) or Nitrocefin (EMD Millipore chemicals, Darmstadt, Germany) as a reporter β-lactamase substrate for activity in the isolated fractions. Active fractions were pooled, concentrated and further purified by gel filtration chromatography on a Superdex 75 prep grade gel filtration column (GE Healthcare, Piscataway, N.J.) pre-equilibrated in 50 mM Hepes pH 7.5, 150 mM NaCl. Active fractions were pooled concentrated, quantitated by BCA protein determination (Thermo Scientific, Rockford, Ill.), dialyzed into PBS and frozen at −80° C. in 20% glycerol until use.
(§4) An equal volume of diluted enzyme stock was added, and the plates were incubated at 37° C. for 15 min. Nitrocefin was used as substrate for p99 AmpC, VIM-2 and OXA-1 and dispensed into each well at a final concentration of 100 μM. Absorbance at 486 nm was immediately monitored for 10 min using a Biotek Powerwave XS2 microplate spectrophotometer using the GEN5 software package (Biotek Instruments, Winooski Vt.). In an analogous fashion, imipenem was used as substrate for Kpc-2 and Cefotaxime was used for SHV-5, while changes in absorbance upon hydrolysis of the β-lactam ring were monitored at 300 nm and 260 nm respectively in UV-transparent 96-well microtiter assay plates. Maximum rates of hydrolysis were compared to those in control wells (without inhibitors), and percentages of enzyme inhibition were calculated for each concentration of inhibitor. The concentration of inhibitor needed to reduce the initial rate of hydrolysis of substrate by 50% (IC50) was calculated as the residual activity of β-lactamase at 486 nm using GraFit version 7 kinetics software package (Erithacus Software, Surrey, UK).
(§5) Using the methodology described above, examples of the current invention were evaluated for their ability to inhibit β-lactamase enzymes from all four Ambler classifications (A through D). […] NT=Not tested.

[3] = test system: K. pneumoniae producing the Class D carbapenemase OXA-48; assay: Broth microdilution MIC assay with meropenem, K. pneumoniae OXA-48; type: cell-based; conditions: Fixed Mero (meropenem) 4 μg/mL; K. p. 11978 OXA-48
Source text: as §1, §2

[4] = test system: P. aeruginosa expressing the Class B carbapenemase VIM-2; assay: Broth microdilution MIC assay with meropenem, P. aeruginosa VIM-2; type: cell-based; conditions: Fixed Mero (meropenem) 4 μg/mL; P. aerug. 2775 VIM-2
Source text: as §1, §2

AmpC = biological target: T2, AmpC (Enterobacter cloacae, UniProt P05364); assay: β-lactamase enzyme inhibition assay, p99 AmpC (nitrocefin substrate); type: biochemical
T2 construct: made in house; host or cells: E. coli BL21(DE3)
T2 sequence (P05364 21-381): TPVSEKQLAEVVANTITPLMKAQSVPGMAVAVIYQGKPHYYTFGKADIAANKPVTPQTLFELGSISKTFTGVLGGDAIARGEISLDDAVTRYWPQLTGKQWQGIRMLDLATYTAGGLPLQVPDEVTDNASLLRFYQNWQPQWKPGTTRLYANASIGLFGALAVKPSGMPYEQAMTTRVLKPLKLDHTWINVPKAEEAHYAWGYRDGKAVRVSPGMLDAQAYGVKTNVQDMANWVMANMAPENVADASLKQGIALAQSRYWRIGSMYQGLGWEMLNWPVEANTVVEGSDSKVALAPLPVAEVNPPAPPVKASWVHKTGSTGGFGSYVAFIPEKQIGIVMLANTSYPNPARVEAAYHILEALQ
Protocol: as §3, §4, §5

OXA-48 = OXA-48 (UniProt Q6XEC0); assay: β-lactamase enzyme inhibition assay, Class D oxacillinase; type: biochemical; conditions: read-out: OXA-48
[5] = test system: K. pneumoniae expressing the Class A carbapenemase KPC-2; assay: Broth microdilution MIC assay with meropenem, K. pneumoniae KPC-2; type: cell-based; conditions: Fixed Mero (meropenem) 4 μg/mL; K. p. 156319 KPC-3
Source text: as §1, §2

VIM-2 = biological target: T3, VIM-2 (Escherichia coli, UniProt Q5U7L7); assay: β-lactamase enzyme inhibition assay, VIM-2 (nitrocefin substrate); type: biochemical; conditions: Class B; nitrocefin substrate, 486 nm; read-out: VIM-2
T3 construct: made in house; host or cells: E. coli BL21(DE3)
Protocol: For Vim-2 metallo β-lactamase, the procedure was identical with the following exceptions, first the protein was not pH adjusted to pH 5 with 50 mM sodium acetate, second, the chromatography step was changed to a 5 ml Q sepharose anion exchange column pre-equilibrated with 50 mM Hepes pH 7.5, and elution of the protein was achieved by a linear gradient of NaCl (0-600 mM). Finally, the VIM-2 purification required a second run (3rd step) on the Q sepharose anion exchange column to achieve acceptable purity (>90%).
as §4, §5

KPC-2 = biological target: T4, KPC-2 (Klebsiella pneumoniae, UniProt Q9F663); assay: β-lactamase enzyme inhibition assay, KPC-2 (imipenem substrate); type: biochemical; conditions: Class A; imipenem substrate, 300 nm; read-out: KPC-2
T4 construct: made in house; host or cells: E. coli BL21(DE3)
T4 sequence (Q9F663 25-293, looked up): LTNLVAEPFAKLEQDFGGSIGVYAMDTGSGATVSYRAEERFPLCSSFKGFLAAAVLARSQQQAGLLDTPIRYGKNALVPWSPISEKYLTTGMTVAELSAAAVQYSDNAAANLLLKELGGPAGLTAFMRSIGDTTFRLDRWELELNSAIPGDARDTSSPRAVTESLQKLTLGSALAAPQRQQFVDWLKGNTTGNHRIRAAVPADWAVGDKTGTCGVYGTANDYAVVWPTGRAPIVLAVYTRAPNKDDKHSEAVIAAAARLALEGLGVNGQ
Protocol: as §3, §4, §5

| SMILES | MIC (μg/mL) of Exemplary Compounds in presence of fixed β-lactams: E. coli ESBL4 CTX-M-15 [1] | MIC (μg/mL) of Exemplary Compounds in presence of fixed β-lactams: K. p. A-1797 KPC-2 VIM-4 [2] | IC50 (SHV-5) | MIC (μg/mL) of Exemplary Compounds in presence of fixed β-lactams: K. p. 11978 OXA-48 [3] | MIC (μg/mL) of Exemplary Compounds in presence of fixed β-lactams: P. aerug. 2775 VIM-2 [4] | IC50 (AmpC) | IC50 (OXA-48) | MIC (μg/mL) of Exemplary Compounds in presence of fixed β-lactams: K. p. 156319 KPC-3 [5] | IC50 (VIM-2) | IC50 (KPC-2) |
| --- | --- | --- | --- | --- | --- | --- | --- | --- | --- | --- |
| O=C(Cn1cc(CNCCCC(F)(F)F)nn1)N[C@H]1Cc2cccc(C(=O)O)c2OB1O [Example 112, (R)-2-hydroxy-3-(2-(4-(((4,4,4-trifluorobutyl)amino)methyl)-1H-1,2,3-triazol-1-yl)acetamido)-3,4-dihydro-2H-benzo[e][1,2]oxaborinine-8-carboxylic acid] | C (C represents an MIC of <1 μg/mL) | B (B represents an MIC between 1 and 16 μg/mL inclusive) | 100 to 1000 nM | A (A represents an MIC>16 μg/mL) | C (C represents an MIC of <1 μg/mL) | < 100 nM | 100 to 1000 nM | B (B represents an MIC between 1 and 16 μg/mL inclusive) | 100 to 1000 nM | 100 to 1000 nM |
| O=C(Cn1ccc(B(O)O)n1)N[C@H]1Cc2cccc(C(=O)O)c2OB1O [Example 116, (R)-3-(2-(3-borono-1H-pyrazol-1-yl)acetamido)-2-hydroxy-3,4-dihydro-2H-benzo[e][1,2]oxaborinine-8-carboxylic acid] | C (C represents an MIC of <1 μg/mL) | B (B represents an MIC between 1 and 16 μg/mL inclusive) | < 100 nM | B (B represents an MIC between 1 and 16 μg/mL inclusive) | C (C represents an MIC of <1 μg/mL) | < 100 nM | 100 to 1000 nM | B (B represents an MIC between 1 and 16 μg/mL inclusive) | 1000 to 10000 nM | < 100 nM |
| NCCn1cc(CC(=O)N[C@H]2Cc3cccc(C(=O)O)c3OB2O)nn1 [Example 122, (R)-3-(2-(1-(2-aminoethyl)-1H-1,2,3-triazol-4-yl)acetamido)-2-hydroxy-3,4-dihydro-2H-benzo[e][1,2]oxaborinine-8-carboxylic acid] | C (C represents an MIC of <1 μg/mL) | B (B represents an MIC between 1 and 16 μg/mL inclusive) | < 100 nM | B (B represents an MIC between 1 and 16 μg/mL inclusive) | C (C represents an MIC of <1 μg/mL) | < 100 nM | 100 to 1000 nM | B (B represents an MIC between 1 and 16 μg/mL inclusive) | 100 to 1000 nM | < 100 nM |
